Results on six molecules are retold here after patent publication US11020416B2, “Cancer chemotherapy employing halogenated analogs of thymidine” (priority 2015, dated 2021).

The conditions of series [1]: cited from earlier work.
Series [2] deals with T1, PARP1 (Homo sapiens, UniProt P09874). Conditions: cited from earlier work.
Target sequence in this assay (P09874 whole entry, species assumed, the tested form may be a part): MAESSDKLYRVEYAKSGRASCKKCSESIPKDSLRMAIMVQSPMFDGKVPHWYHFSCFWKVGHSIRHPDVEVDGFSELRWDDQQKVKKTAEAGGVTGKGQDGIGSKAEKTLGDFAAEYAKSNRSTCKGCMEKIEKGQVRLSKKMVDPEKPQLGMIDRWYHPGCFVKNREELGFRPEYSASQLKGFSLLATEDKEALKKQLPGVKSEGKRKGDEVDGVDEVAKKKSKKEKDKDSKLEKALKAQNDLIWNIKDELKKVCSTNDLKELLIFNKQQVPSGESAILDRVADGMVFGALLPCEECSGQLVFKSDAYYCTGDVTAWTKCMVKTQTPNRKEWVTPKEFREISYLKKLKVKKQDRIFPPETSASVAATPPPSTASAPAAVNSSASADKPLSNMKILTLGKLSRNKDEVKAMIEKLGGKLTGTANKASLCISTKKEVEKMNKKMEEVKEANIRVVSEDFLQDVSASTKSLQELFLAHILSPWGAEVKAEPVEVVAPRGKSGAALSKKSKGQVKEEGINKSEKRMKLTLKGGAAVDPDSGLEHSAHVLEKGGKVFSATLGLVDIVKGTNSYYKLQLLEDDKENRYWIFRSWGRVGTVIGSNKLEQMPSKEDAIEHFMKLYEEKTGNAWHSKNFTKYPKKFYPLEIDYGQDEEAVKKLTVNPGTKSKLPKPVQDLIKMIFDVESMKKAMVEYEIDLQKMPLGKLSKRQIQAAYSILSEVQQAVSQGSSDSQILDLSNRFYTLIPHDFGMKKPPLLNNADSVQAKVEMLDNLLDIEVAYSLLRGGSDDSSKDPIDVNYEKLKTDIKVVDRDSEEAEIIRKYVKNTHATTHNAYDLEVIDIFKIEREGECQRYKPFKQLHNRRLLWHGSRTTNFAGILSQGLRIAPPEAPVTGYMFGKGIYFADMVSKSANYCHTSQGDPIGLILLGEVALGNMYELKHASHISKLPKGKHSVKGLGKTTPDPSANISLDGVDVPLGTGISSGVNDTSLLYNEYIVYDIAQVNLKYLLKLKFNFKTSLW
The conditions of series [3]: after infusion of bromodeoxyuridine or iododeoxyuridine; cited from earlier work.
The target of series [4] is T1, PARP1. Conditions: solution; Pivazyan, 1992; cited from earlier work.
Target sequence in this assay (P09874 whole entry, species assumed, the tested form may be a part): as above
The test system of the next series is Unresectable Sarcoma. Conditions: trial e, 1987, 5 patients, dose 1.3, iv, with radiation, multiple cycles up to 5 months; cited from earlier work.
Series [5] relates to DU-145, a human prostate metastatic carcinoma cell line. As to the kind of experiment: 14-day culture of neoplastic cells with HAT, morphology and cell number (FIG. 2). Type of series: cell-based. The conditions noted are these: DU-145, 10 micromolar, 14 days in culture (more than 300 without drug). An excerpt: (§1) FIGS. 2A-D illustrate HAT-Pi effects on two neoplastic cell lines; a) Calu-6, a human lung carcinoma cell line; and, b) DU-145, a human prostate metastatic carcinoma cell line.
(§2) Additionally, the overall appearance of the cultures and the morphology of the surviving cells is altered in specific ways. First, the remaining (surviving) cells are tightly adherent to the surface of the culture dish giving them a “flattened” appearance. Second, neoplastic cell expansion is attributable to cytoplasmic growth, which leaves the smaller internal cell nuclei distinctive in outline. Third, many cell outlines are “ruffled” in some regions due to the presence of lamellipodia, plasmalemma projections that are the leading edges of cell expansion (open arrows in FIGS. 2B and 2D). Fourth, specialized cell-cell contact and communication regions are evident where the lamellipodia of two or more cells meet (closed arrows in FIGS. 2B and 2D). […] These characteristic features of HAT-treated neoplastic cells indicate that substrate-attachment-dependent survival and contact inhibition have both been restored in surviving neoplastic cells. […]

Series [6] has as its system Calu-6, a human lung carcinoma cell line. Described as above. It is filed as cell-based. The conditions noted are these: Calu-6, 10 micromolar, 14 days in culture (more than 300 without drug).
Description: as §1, §2

Series [7] has as its target T1, PARP1. Further details: isolated HeLa cell nuclei; endogenous in cells; host or cells: isolated HeLa cell nuclei. Conditions: 1 mM; Preiss, 1971; cited from earlier work.
Target sequence in this assay (P09874 whole entry, the tested form may be a part): as the sequence (P09874 whole entry, species assumed, the tested form may be a part) above
The target in series [8] is T1, PARP1. As to the kind of experiment: Michaelis-Menten kinetic analysis of PARP1 enzymatic activity in solution (FIG. 1). Type of series: biochemical. Here is the method:
Cloned human PARP-1 (8 nanomolar) was incubated with 100 nanomolar dA/dT, 50 micrograms/milliliter histone Hi and varying concentrations (50, 150, 450 micromolar) of ^32P-NAD^+ in the absence and presence of inhibitor (50 micromolar) at physiological pH (7.3) as described (E. Kirsten, E. Kun, J. Mendeleyev, C. P. Ordahl, Methods in Molecular Biology 287 137 (2004) and Kun, 2004 op cit). Reactions were started by the addition of PARP-1 and incubated for 10 minutes at room temperature after which acid precipitable ^32P was determined.
Target sequence in this assay (P09874 whole entry, the tested form may be a part): as the sequence (P09874 whole entry, species assumed, the tested form may be a part) above

In series [9] the target is T1, PARP1. Details: isolated HeLa cell nuclei; endogenous in cells; host or cells: isolated HeLa cell nuclei. The conditions noted are these: 50 mM; Filetti, 1981; cited from earlier work.
Target sequence in this assay (P09874 whole entry, the tested form may be a part): as the sequence (P09874 whole entry, species assumed, the tested form may be a part) above
The subject of series [10] is PARP1. The conditions noted are these: solution; Rankin, 1989; cited from earlier work.
Series [11] deals with T2, PARP1 (Mus musculus, UniProt P11103).
T2 construct: solution/cultured 10T1/2 cells; endogenous in cells; host or cells: cultured 10T1/2 cells
T2 sequence (P11103 whole entry): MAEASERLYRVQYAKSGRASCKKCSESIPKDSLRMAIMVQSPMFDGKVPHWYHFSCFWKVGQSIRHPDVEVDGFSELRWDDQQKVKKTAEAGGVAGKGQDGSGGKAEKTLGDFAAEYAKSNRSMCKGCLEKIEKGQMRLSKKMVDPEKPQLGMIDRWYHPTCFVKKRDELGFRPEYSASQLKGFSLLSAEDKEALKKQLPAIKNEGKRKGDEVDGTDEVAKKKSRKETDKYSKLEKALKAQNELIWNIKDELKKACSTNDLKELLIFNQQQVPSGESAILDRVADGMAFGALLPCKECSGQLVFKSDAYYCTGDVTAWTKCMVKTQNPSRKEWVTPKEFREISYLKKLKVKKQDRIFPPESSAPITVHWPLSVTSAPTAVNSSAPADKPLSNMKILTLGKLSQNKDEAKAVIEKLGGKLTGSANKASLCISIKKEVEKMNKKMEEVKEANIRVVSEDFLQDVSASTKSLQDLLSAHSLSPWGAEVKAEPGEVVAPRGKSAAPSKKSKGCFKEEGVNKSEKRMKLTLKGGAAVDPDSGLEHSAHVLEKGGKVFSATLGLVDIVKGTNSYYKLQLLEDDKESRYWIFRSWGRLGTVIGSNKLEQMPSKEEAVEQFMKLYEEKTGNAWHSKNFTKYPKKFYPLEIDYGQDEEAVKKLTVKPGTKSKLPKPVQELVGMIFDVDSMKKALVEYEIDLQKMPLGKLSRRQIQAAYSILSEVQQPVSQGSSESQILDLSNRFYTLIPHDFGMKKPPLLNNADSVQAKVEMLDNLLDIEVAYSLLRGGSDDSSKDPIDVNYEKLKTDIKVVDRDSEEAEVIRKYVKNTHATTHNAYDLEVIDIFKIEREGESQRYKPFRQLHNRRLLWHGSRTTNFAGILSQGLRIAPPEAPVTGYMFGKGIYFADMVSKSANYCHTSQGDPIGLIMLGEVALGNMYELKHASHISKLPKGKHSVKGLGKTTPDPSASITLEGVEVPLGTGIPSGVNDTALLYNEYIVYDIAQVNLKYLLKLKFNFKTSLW
The conditions noted are these: cultured 10T1/2 cells; Rankin, 1989; cited from earlier work.

Another series relates to HeLa cells. Conditions: cell culture; Sumikawa 2005; cited from earlier work.
Where [12] appears, read: schedule A, single oral dose 2.40 Grams IPdR per M^2/day.
The mark [13] stands for this setting: schedule B, single oral dose 1.20 Grams IPdR per M^2/day.
[14] abbreviates: schedule C, single oral dose 0.60 Grams IPdR per M^2/day.
Setting [15] is: schedule D, single oral dose 0.30 Grams IPdR per M^2/day.
The mark [16] stands for this setting: schedule E, single oral dose 0.15 Grams IPdR per M^2/day.

Like-named read-outs stand apart in the source and are kept apart here.

Take `O=c1ncc(I)cn1[C@H]1C[C@H](O)[C@@H](CO)O1` [IPdR, 5-iodo-2-pyrimidinone-2′-deoxyribose]: the “IU AUC” value in [1] (setting [12]) was 1057.8 µM·h; in [1] (setting [13]) it was 102.7 µM·h; in series [1] (setting [14]), 17.2 µM·h; in [1] (setting [15]) it was 4.5 µM·h; in series [1] (setting [16]) it was 1.0 µM·h. The “IdU AUC” value in series [1] (setting [12]) is 12.2 µM·h; in [1] (setting [13]) it was 4.7 µM·h; in series [1] (setting [14]) it was 3.2 µM·h; in series [1] (setting [15]), 0.3 µM·h; in series [1] (setting [16]) it was 1.7 µM·h. In addition, the “[IU] plasma (iodouracil), average maximum concentration” value in series [1] (setting [12]) is 133 µM; in [1] (setting [13]) it was 34.2 µM; in [1] (setting [14]) it was 4.5 µM; in series [1] (setting [15]) it was 0.8 µM; in series [1] (setting [16]), 0.2 µM. Moreover, the “[IdU] plasma, average maximum concentration” value is 4.0 µM in [1] (setting [12]); 2.1 µM in series [1] (setting [13]); 1.8 µM in series [1] (setting [14]); 0.3 µM in series [1] (setting [15]); 0.8 µM in series [1] (setting [16]). The “time to average peak concentration of iododeoxyuridine in patient plasma” value in series [1] (single oral dose of IPdR) was at most 2 h.

On to `O=c1[nH]cc(Br)c(=O)[nH]1` [Bromouracil, 5-bromouracil], for which, on PARP1 [2], the “inhibition of PARP1 enzymatic activity” value is “demonstrated capacity to inhibit PARP1 enzymatic activity”. Also, the “catabolite concentration accumulated in patient plasma” value in [3] is around 100 µM.

`O=c1[nH]cc(I)c(=O)[nH]1` [Iodouracil, 5-iodouracil]: the “inhibition of PARP1 enzymatic activity” value on PARP1 [2] is given as “demonstrated capacity to inhibit PARP1 enzymatic activity”. Besides, in [3], the “catabolite concentration accumulated in patient plasma” value was around 100 µM.

For the molecule `O=c1[nH]c(=O)n([C@H]2C[C@H](O)[C@@H](CO)O2)cc1Br` [Bromodeoxyuridine, 5-bromodeoxyuridine], the Ki at PARP1 [4] was 35 µM; on PARP1 [8] (intercept of Lineweaver-Burk plot, 50 micromolar inhibitor, pH 7.3, read-out: inhibition constant), 10 to 30 µM. Also, the objective improvement with Unresectable Sarcoma is 20%. For the same molecule, in the series with Unresectable Sarcoma, the subjective improvement is on record as 20%. In addition, the “total number of cells per field” value in [5] and in series [6] was below 50 cells per field throughout. Besides, the “reported HAT inhibitory effect: inhibition” value on PARP1 [7] is on record as 1 mM = 97% inhibition. Further, on PARP1 [9], the “reported HAT inhibitory effect” value was 50 mM blocks hormone sensitization. Besides, the IC50 (in general, the concentration needed to halve the response being measured) in the series with PARP1 [10] is 15 µM; at PARP1 [11], 57 µM.

As for `NC(=O)c1cccc(N)c1` [3-amino-benzamide], the mode of inhibition entry on PARP1 [8] (Lineweaver-Burk plot, lines intersect vertical axis at control point) is “in competition with the substrate”.

As for `Cc1cn([C@H]2C[C@H](O)[C@@H](CO)O2)c(=O)[nH]c1=O` [Thymidine, thymidine], in the series with HeLa cells, the “concentration that induces HeLa cells to attach, flatten and undergo cell death and disintegration” value was above 1.0 millimolar.
